Results published in patent US4731370A, “Pyridyl ester containing 1,4-dihydropyridine derivatives and salts thereof and pharmaceutical composition containing the same” (Toyama Chemical Co., Ltd., priority 1984, dated 1988).

Assays:
[1] = system: Thromboxane-Synthesizing Enzyme; assay: Thromboxane-synthesizing enzyme-inhibitory activity (MDA production in platelet-rich plasma after oral dosing); format: in vivo, rat (Wistar strain); conditions: rat, 3 mg/kg, blood after one hour
Experimental: (§1) The compounds of this invention to be tested were used in the form of a hydrochloride.
To a rat (Wistar strain, male, 300-350 g, 4 heads per group) which had been starved overnight was orally administered a test compound solution, and blood was collected from the abdominal aorta using citric acid after one hour. Two milliliters of a 1×10^9 /ml platelet-rich plasma (PRP) was preincubated at 37° C. for 2 minutes. Subsequently, 0.1 ml of 10 mM sodium archidonate was added, and the resulting mixture was subjected to reaction for 6 minutes, after which indomethacin was added thereto to terminate the reaction. The reaction mixture was subjected to deproteinization treatment and reacted with thiobarbituric acid (TBA) reagent, after which the reaction mixture was subjected to extraction with 3 ml of n-butanol. The resulting extract was subjected to colorimetry (λ=532 nm) to determine the amount of malondialdehyde (MDA) produced. As to the platelet-poor plasma (PPP) obtained from the same rat as above, the same procedure as above was repeated to determine the amount of MDA produced, and the difference between the two is indicated as MDA value. Comparing with the MDA values of the control group, the MDA production-inhibition (%) was determined.
The test compounds 1-9 were adjusted to the desired concentrations with water and the test compounds 11-33 and nicardipine were adjusted to a concentration of 5 mg/ml with an aqueous solution containing 10% of each of dimethyl sulfoxide and Cremophor and then diluted with water to the desired concentrations.

[2] = system: mouse pulmonary infraction model; assay: Antithrombosis activity, mouse pulmonary infraction model, paralytic time-shortening (0.15 ml epinephrine/collagen); format: in vivo, mouse (ICR strain); conditions: 1 h, oral, 10 mg/kg, challenge after one hour, 10 mice, read-out: Paralytic time-shortening percentage
Experimental: as §1
Comparing the paralytic time of the control group, the paralytic time-shortening percentage due to the compound to be tested was determined.
(§2) The test compounds shown in Table 4 were adjusted to the desired concentrations with water, and the test compounds shown in Table 5 were adjusted to a concentration of 5 mg/ml with an aqueous solution containing 10% by volume of each of dimethyl sulfoxide and Cremophor, and then diluted with water to the desired concentrations.

[3] = system: vertebral artery blood flow of a dog; assay: Vertebral artery blood flow increasing activity; format: in vivo, dog (mongrel); conditions: i.v., amount with same activity as 1 mg/kg (i.v.) papaverine hydrochloride, ratio to papaverine hydrochloride
Experimental: as §1
The vertebral artery blood flow of a dog (mongrel, 12-22 kg, 2-3 heads per group) anesthetized with pentobarbital sodium (30 mg/kg, i.v.) was measured by means of an electromagnetic flow meter (MFV-2100 manufactured by Nihon Kohden Kogyo).
The test compounds 1, 3 and 10 were adjusted to a concentration of 1 mg/ml with distilled water, and then diluted with a saline solution to the desired concentrations, after which the thus diluted solutions were intravenously administered, and the test compounds 12, 15, 18, 19, 20, 24, 29, 30, 32 and 33 were formed into solutions in the same manner as in Item 1 above and then intravenously administered.

[4] = Acute toxicity, intravenous, mice; conditions: mouse, in vivo, mice (ICR, male, 4 weeks old, 5 per group)
[5] = system: mouse pulmonary infraction model; assay: Antithrombosis activity, mouse pulmonary infraction model, prevention of death and paralysis (0.10 ml epinephrine/collagen); format: in vivo, mouse (ICR strain); conditions: 1 h; mouse, oral, 10 mg/kg, challenge after one hour; control 25.7%; read-out: Preventive percentage of death + paralysis for 10 minutes or more
Experimental: as §1
According to the G. DiMinno and M. J. Silver method [J. Pharmacol. Exp. Therap., 225 (1) 57-60 (1983)], a solution of the compound to be tested was orally administered to a mouse (ICR strain, male, 4 weeks old), and 0.15 ml of a mixed solution of epinephrine (100 μM) and collagen (150 μg/ml) was intravenously administered to the mouse after one hour, after which the paralytic time was measured. Comparing the paralytic time of the control group, the paralytic time-shortening percentage due to the compound to be tested was determined. The results obtained are shown in Table 4, in which the case where the paralytic time was 15 minutes was calculated as death.
Moreover, the same experiment was repeated, except that 0.10 ml of a mixed solution of epinephrine (100 μM) and collagen (150 μg/ml) was intravenously administered to the mouse and the effect of preventing the appearance of death and a case where the paralytic time was 10 minutes or more was checked and the results thereof are shown in Table 5.
as §2

[6] = system: coronary vessel (isolated guinea pig heart); assay: Coronary vasodilating activity (isolated perfused guinea pig heart, coronary effluent); parameters: species or system guinea pig (Hartley strain); conditions: Langendorff perfusion, 0.1 ml into aorta, hydrochloride
Experimental: as §1
The heart of a guinea pig (Hartley strain, male, 500-700 g, 3 heads per group) was isolated and set in the Landendorff perfusing apparatus. About 0.5% defibrinated blood was fed to the apparatus, and the Krebs bicarbonate solution, into which a mixed gas consisting of 95% of O2 and 5% of CO2 had been bubbled was perfused over the heart, after which a 1 mg/ml solution of the test compound in an aqueous solution containing 10% by volume of dimethylsulfoxide and 10% of polyoxyethylfatty acid glyceride [Cremophor EL manufactured by Sigma] was prepared, diluted with a saline solution to the desired concentration, and then administered into the heart in an amount of 0.1 ml through the rubber tube attached to the cannula inserted retrogressively into the aorta. The vasodilating activity was determined by measuring the amount of the solution effluent from the coronary vessel after passing through the aorta by means of an electric drop counter (universal drop counter manufactured by Natsume Seisakusho) and indicated as ED50 value which is the amount necessary for the amount of the effluent solution to increase 50% as compared with those before addition of the test compound.

In the case of `CC1=C(C(=O)OCCN(C)C/C(C)=C/c2ccc(Cc3cccnc3)cc2)C(c2cccc([N+](=O)[O-])c2)C(C(=O)OC(C)C)=C(C)N1` (stereo not shown) [compound 1], the MDA production-inhibition [1] is reported as 59.4%, the inhibition in vivo at 10 mg/kg [2] is reported as 52.3% and the Effect ratio [3] is reported as 238.

For `COCCOC(=O)C1=C(C)NC(C)=C(C(=O)OCCN(C)C/C(C)=C/c2ccc(Cc3cccnc3)cc2)C1c1cccc([N+](=O)[O-])c1` (stereo not shown) [compound 3], the MDA production-inhibition [1] was 65.8% and the Effect ratio [3] was 385.

In the case of `CCOC(=O)C1=C(C)NC(C)=C(C(=O)OCCN(C)C/C(C)=C/c2ccc(Cc3cccnc3)cc2)C1c1cccc([N+](=O)[O-])c1` (stereo not shown) [compound 4], the MDA production-inhibition [1] is reported as 53.6% and the inhibition in vivo at 10 mg/kg [2] is reported as 38.6%.

`CC1=C(C(=O)OCCN(C)C/C(C)=C/c2ccc(Cc3cccnc3)cc2)C(c2cccc(Cl)c2Cl)C(C(=O)OC(C)C)=C(C)N1` (stereo not shown) [compound 5] showed an MDA production-inhibition [1] of 57.9% and an inhibition in vivo at 10 mg/kg [2] of 93.9%.

In the case of `CC1=C(C(=O)OCCN(C)C/C(C)=C/c2ccc(Cc3cccnc3)cc2)C(c2ccccc2C(F)(F)F)C(C(=O)OC(C)C)=C(C)N1` (stereo not shown) [compound 6], the MDA production-inhibition [1] is reported as 60.6% and the inhibition in vivo at 10 mg/kg [2] is reported as 87.9%.

For `CC1=C(C(=O)OCCN(C)C/C=C/c2ccc(Cn3ccnc3)cc2)C(c2cccc([N+](=O)[O-])c2)C(C(=O)OC(C)C)=C(C)N1` (stereo not shown) [compound 9], the MDA production-inhibition [1] was 47.2% and the LD50 [4] was at least 30 mg/kg.

With `CCOC(=O)C1=C(C)NC(C)=C(C(=O)OCCOCCCc2ccc(Cn3ccnc3)cc2)C1c1cccc([N+](=O)[O-])c1` (stereo not shown) [compound 11] the MDA production-inhibition [1] was 37.8%.

`CCOC(=O)C1=C(C)NC(C)=C(C(=O)OCCOC/C(C)=C/c2ccc(Cc3cccnc3)cc2)C1c1cccc([N+](=O)[O-])c1` (stereo not shown) [compound 12] gave an MDA production-inhibition [1] of 48.1%, a responders at 10 mg/kg [5] of 77.8% and an LD50 [4] of at least 75 mg/kg. For the same molecule, the “ED50 (amount necessary for the amount of the effluent solution to increase 50%)” value [6] was 0.026 μg/i.c and the Effect ratio [3] was 345.

For `CCOC(=O)C1=C(C)NC(C)=C(C(=O)OCCOC/C=C/c2ccc(Cn3ccnc3)cc2)C1c1cccc([N+](=O)[O-])c1` (stereo not shown) [compound 13], the MDA production-inhibition [1] was 47.2% and the “ED50 (amount necessary for the amount of the effluent solution to increase 50%)” value [6] was 0.036 μg/i.c.

For `CCOC(=O)C1=C(C)NC(C)=C(C(=O)OCCOCc2ccc(Cn3ccnc3)cc2)C1c1cccc([N+](=O)[O-])c1` (stereo not shown) [compound 14], the “ED50 (amount necessary for the amount of the effluent solution to increase 50%)” value [6] was 0.023 μg/i.c.

With `CCOC(=O)C1=C(C)NC(C)=C(C(=O)OCCOCc2ccc(Cc3cccnc3)cc2)C1c1cccc([N+](=O)[O-])c1` (stereo not shown) [compound 15] the “ED50 (amount necessary for the amount of the effluent solution to increase 50%)” value [6] was 0.0092 μg/i.c and the Effect ratio [3] was 238.

With `CCOC(=O)C1=C(C)NC(C)=C(C(=O)OCCOC/C=C/c2ccc(Cc3cccnc3)cc2)C1c1cccc([N+](=O)[O-])c1` (stereo not shown) [compound 16] the MDA production-inhibition [1] was 31.6%, the LD50 [4] was at least 75 mg/kg and the “ED50 (amount necessary for the amount of the effluent solution to increase 50%)” value [6] was 0.0105 μg/i.c.

Molecule `COC(=O)C1=C(C)NC(C)=C(C(=O)OCCOC/C(C)=C/c2ccc(Cc3cccnc3)cc2)C1c1cccc([N+](=O)[O-])c1` (stereo not shown) [compound 17] has an MDA production-inhibition [1] of 58.6%, a responders at 10 mg/kg [5] of 100% and an LD50 [4] of at least 75 mg/kg. For the same molecule, the “ED50 (amount necessary for the amount of the effluent solution to increase 50%)” value [6] was 0.012 μg/i.c.

In the case of `CCOC(=O)C1=C(C)NC(C)=C(C(=O)OCCOCCCc2ccc(Cc3cccnc3)cc2)C1c1cccc([N+](=O)[O-])c1` (stereo not shown) [compound 18], the MDA production-inhibition [1] is reported as 40.9%, the “ED50 (amount necessary for the amount of the effluent solution to increase 50%)” value [6] is reported as 0.026 μg/i.c and the Effect ratio [3] is reported as 233.

With `CCOC(=O)C1=C(C)NC(C)=C(C(=O)OCCOC/C(C)=C/c2ccc(Oc3cccnc3)cc2)C1c1cccc([N+](=O)[O-])c1` (stereo not shown) [compound 19] the responders at 10 mg/kg [5] was 77.8%, the LD50 [4] was at least 75 mg/kg and the “ED50 (amount necessary for the amount of the effluent solution to increase 50%)” value [6] was 0.017 μg/i.c. It also gave an Effect ratio [3] of 550.

With `CCOC(=O)C1=C(C)NC(C)=C(C(=O)OCCOCCCc2ccc(Oc3cccnc3)cc2)C1c1cccc([N+](=O)[O-])c1` (stereo not shown) [compound 20] the responders at 10 mg/kg [5] was 70%, the “ED50 (amount necessary for the amount of the effluent solution to increase 50%)” value [6] was 0.024 μg/i.c and the Effect ratio [3] was 535.

In the case of `CCOC(=O)C1=C(C)NC(C)=C(C(=O)OCCOC/C(C)=C/c2ccc(Cc3cccnc3)s2)C1c1cccc([N+](=O)[O-])c1` (stereo not shown) [compound 21], the responders at 10 mg/kg [5] is reported as 80% and the LD50 [4] is reported as at least 75 mg/kg.

In the case of `COC(=O)C1=C(C)NC(C)=C(C(=O)OCCOC/C=C/c2ccc(Cc3cccnc3)cc2)C1c1cccc([N+](=O)[O-])c1` (stereo not shown) [compound 22], the “ED50 (amount necessary for the amount of the effluent solution to increase 50%)” value [6] is reported as 0.016 μg/i.c.

With `CC1=C(C(=O)OCCOC/C=C/c2ccc(Cc3cccnc3)cc2)C(c2cccc([N+](=O)[O-])c2)C(C(=O)OCCN(C)Cc2ccccc2)=C(C)N1` (stereo not shown) [compound 23] the “ED50 (amount necessary for the amount of the effluent solution to increase 50%)” value [6] was 0.019 μg/i.c.

Work on `CC1=C(C(=O)OCCOC/C=C/c2ccc(Cc3cccnc3)cc2)C(c2cccc([N+](=O)[O-])c2)C(C(=O)OC(C)C)=C(C)N1` (stereo not shown) [compound 24] yielded a responders at 10 mg/kg [5] of 90% and an Effect ratio [3] of 286.

In the case of `COC(=O)C1=C(C)NC(C)=C(C(=O)OCCOC/C=C/c2ccc(Cc3cccnc3)cc2)C1c1ccccc1C(F)(F)F` (stereo not shown) [compound 26], the responders at 10 mg/kg [5] is reported as 90%.

Work on `CCOC(=O)C1=C(C)NC(C)=C(C(=O)OCCOCCc2ccc(Cc3cccnc3)cc2)C1c1cccc([N+](=O)[O-])c1` (stereo not shown) [compound 27] yielded an MDA production-inhibition [1] of 35.7% and a responders at 10 mg/kg [5] of 77.8%.

`CCOC(=O)C1=C(C)NC(C)=C(C(=O)OCCSC/C=C/c2ccc(Cc3cccnc3)cc2)C1c1cccc([N+](=O)[O-])c1` (stereo not shown) [compound 28] gave an MDA production-inhibition [1] of 31.2%.

In the case of `CC1=C(C(=O)OCCOC/C(C)=C/c2ccc(Cc3cccnc3)cc2)C(c2cccc([N+](=O)[O-])c2)C(C(=O)OC(C)C)=C(C)N1` (stereo not shown) [compound 29], the MDA production-inhibition [1] is reported as 56.8%, the responders at 10 mg/kg [5] is reported as 90% and the “ED50 (amount necessary for the amount of the effluent solution to increase 50%)” value [6] is reported as 0.019 μg/i.c. The Effect ratio [3] was 426.

In the case of `CCOC(=O)C1=C(C)NC(C)=C(C(=O)OCCCCOC/C(C)=C/c2ccc(Cc3cccnc3)cc2)C1c1cccc([N+](=O)[O-])c1` (stereo not shown) [compound 30], the LD50 [4] is reported as at least 50 mg/kg and the Effect ratio [3] is reported as 397.

`CCOC(=O)C1=C(C)NC(C)=C(C(=O)OCC(C)COC/C(C)=C/c2ccc(Cc3cccnc3)cc2)C1c1cccc([N+](=O)[O-])c1` (stereo not shown) [compound 31] showed an MDA production-inhibition [1] of 50.5%.

With `COC(=O)C1=C(C)NC(C)=C(C(=O)OCC(C)(C)COC/C(C)=C/c2ccc(Cc3cccnc3)cc2)C1c1cccc([N+](=O)[O-])c1` (stereo not shown) [compound 32] the Effect ratio [3] was 417.

Molecule `CCOC(=O)C1=C(C)NC(C)=C(C(=O)OCC(C)(C)COC/C(C)=C/c2ccc(Cc3cccnc3)cc2)C1c1cccc([N+](=O)[O-])c1` (stereo not shown) [compound 33] has an MDA production-inhibition [1] of 41.5% and an Effect ratio [3] of 333.
